Where a name gives a salt, the structure may show the parent alone. Read-outs that look alike come from different tables or passages of the source. Blank lines part the entries; values can stand above or below the compound they belong to.
How the values were obtained:
[1] = molecular target: recombinant human KIT tyrosine kinase protein (Homo sapiens (Human), UniProt P10721); experiment: KIT tyrosine kinase assay (ADP-Glo); assay type: biochemical
Description: An in vitro assay utilizing the recombinant human KIT tyrosine kinase protein was developed to measure compound inhibition of KIT. KIT tyrosine kinase activity was measured by the ADP-Glo Kinase Assay system with poly […]) peptide substrate. Kinase Assay was performed in white 384-well plates and the luminescence was measured by Victor X5 Multilabel Counter (Perkin Elmer). Recombinant intracellular domain of human KIT protein was purchased from Carna Biosciences (Kobe, Japan). Poly […]) peptide was purchased from Sigma-Aldrich (St. Louis, Missouri, USA). ADP-Glo Kinase Assay reagent was purchased from Promega (Madison, Wisconsin, USA). Each test compound was dissolved in 100% DMSO to prepare 10 mM stock solutions. […] After the preincubation, 3 μL of substrate/ATP mixture was added and incubated for 1 hour at room temperature. The tyrosine phosphorylation by KIT kinase was quantified by ADP-Glo kinase assay kit following the manufacturer's protocol. Briefly, the phosphorylation reaction was terminated by adding 10 μL ADP-Glo reagent and incubated for 60 minutes at room temperature. 20 μL of Kinase Detection Reagent was added to each well and luminescence was measured by plate reader. […] Half maximal inhibitory concentration (IC50) was calculated by a Four […] Logistic Regression model using GraphPad Prism (GraphPad Software). The value without recombinant KIT protein and without test compound was used as a negative control (assay background).

M-07e cells = experiment: SCF-dependent M-07e cell proliferation assay; assay type: cell-based, human; conditions: read-out: M-07e IC50
Description: SCF-dependent cell proliferation assay was developed to measure the inhibitory potency of the compounds in M-07e cells, which express wild-type human KIT protein. The assay was performed in 96-well plates and the IC50 of each KIT inhibitor was determined by CellTiter Glo Assay reagent and Victor X5 Multilabel Counter (Perkin Elmer).
M-07e cells were purchased from AcceGen Biotechnology. Cells were maintained with M-07e Growth medium: RPMI-1640 containing 20% FBS, 100 U/mL penicillin and 100 microgram/mL streptomycin, 10 ng/mL rhGM-CSF, 10 ng/mL rhSCF. M-07e cells were seeded at a density of 5000 cells/90 μL/well in 96-well plates. Test compounds were dissolved in 100% DMSO to make 20 mM stock solution and serially diluted 1:3 with 100% DMSO to make an 11-point dilution series with concen-trations from […] to 0.024 μM. The serially diluted compounds were then each diluted 1:50 with culture medium to obtain assay compound solutions containing 2% DMSO. Ten μL of assay compound solutions were added to the 90 μL of culture cell suspension in the 96-well plate, with a final DMSO concentration of 0.2%. The plates were then incubated in a 5% CO2 incubator at 37° C. for 3 days. To obtain Day Zero Controls for background calculation, cells were seeded at 5000 cells/100 μL in a new 96-well plate and processed on the same day. Both Day Zero controls and 3 day culture plates were then treated as follows. 100 μL of CellTiter Glo Assay reagent was added to each well and the plate was incubated at room temperature for 15 min on a shaker at 200-300 RPM. Then 100 μL of cell lysate samples were transferred to white wall 96-well plates and luminescence was measured by a plate reader. The luminescence of Day Zero Control was subtracted from the luminescence intensity of 3 day culture readings. The assay control for this experiment was cells treated with 0.2% DMSO in culture medium and wells with 100 μL of culture medium (0.2% DMSO without cells) were used as the blank for data analysis.
The IC50 value of each compound was determined by using % inhibition by nor-malizing inhibition in DMSO treated control wells to 0% using the following formula method: […]
Plot percent inhibition in proliferation of triplicates against the respective concen-trations of compound and fit the dose response curve using the sigmoidal dose response equation to generate the IC50 in GraphPad Prism 8 software.

[2] = Homo sapiens, M-07e, 72 h, SCF-dependent M-07e cell proliferation, 3 days, CellTiter Glo

recombinant human KIT tyrosine kinase protein, sequence (P10721 546-976): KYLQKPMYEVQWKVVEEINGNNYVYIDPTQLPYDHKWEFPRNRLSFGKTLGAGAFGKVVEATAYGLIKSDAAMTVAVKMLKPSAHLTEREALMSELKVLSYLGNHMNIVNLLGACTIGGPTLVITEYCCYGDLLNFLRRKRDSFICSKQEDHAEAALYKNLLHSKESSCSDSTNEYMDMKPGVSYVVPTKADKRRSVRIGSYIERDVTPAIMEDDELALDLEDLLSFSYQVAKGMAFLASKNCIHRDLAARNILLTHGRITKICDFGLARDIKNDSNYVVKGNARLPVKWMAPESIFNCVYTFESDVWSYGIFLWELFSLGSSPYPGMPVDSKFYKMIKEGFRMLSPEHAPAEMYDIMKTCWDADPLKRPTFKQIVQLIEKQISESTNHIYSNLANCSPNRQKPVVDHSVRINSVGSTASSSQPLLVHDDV

Compound: Cn1c(=O)[nH]c2cc(C(=O)NCc3ccc(Oc4cccc(F)c4F)nc3)ccc21 [Example 36]
- IC50 ([1]; Table 98): 50 nM
- IC50 (M-07e cells; Homo sapiens, M-07e, 72 h): 870 nM

- IC50 ([1]; Table 98): 36 nM
Compound: Cn1c(=O)[nH]c2cc(C(=O)NCc3ccc(N(C)[C@H]4C[C@@H](C(F)(F)F)C4)nc3)ccc21 [Compound 12, 1-Methyl-N-((6-(methyl(cis-3-(trifluoromethyl)cyclobutyl)amino)pyridin-3-yl)methyl)-2-oxo-2,3-dihydro-1H-benzimidazole-5-carboxamide]
- IC50 (M-07e cells; [2]): 38 nM

- IC50 ([1]; Table 99): 222 nM
Compound: CC(NC(=O)c1ccc2c(c1)[nH]c(=O)n2C)c1ccc(N(C)C(C)C)nc1 (centres unmarked) [Example 130]
- IC50 (M-07e cells; [2]): 1860 nM

Compound: CN(c1ccc(CNC(=O)c2ccc3c(c2)[nH]c(=O)n3C)cn1)C1CC2(COC2)C1 [Example 121]
- IC50 ([1]; Table 99): 59 nM
- IC50 (M-07e cells; Homo sapiens, M-07e, 72 h): 1350 nM

Compound: C[C@H]1CCCN1c1cnc(CNC(=O)c2ccc3c(c2)[nH]c(=O)n3C)cn1 [Example 98]
- IC50 ([1]; Table 98): 71 nM
- IC50 (M-07e cells; Homo sapiens, M-07e, 72 h): 990 nM

Compound: CN(CC1CC(F)(F)C1)c1ccc(CNC(=O)c2ccc3c(c2)[nH]c(=O)n3C)cn1 [Example 68]
- IC50 ([1]; Table 98): 42 nM
- IC50 (M-07e cells; Homo sapiens, M-07e, 72 h): 130 nM

- IC50 ([1]; Table 99): 33 nM
Compound: CN(c1ccc(CNC(=O)c2ccc3c(c2)[nH]c(=O)n3C)cn1)[C@H]1CC[C@@H](F)C1 [Example 110, N-((6-(((1S,3R)-3-Fluorocyclopentyl)(methyl)amino)pyridin-3-yl)methyl)-1-methyl-2-ox o-2,3-dihydro-1H-benzimidazole-5-carboxamide]
- IC50 (M-07e cells; [2]): 55 nM

- IC50 ([1]; Table 99): 29 nM
Compound: [2H]C([2H])([2H])n1c(=O)[nH]c2cc(C(=O)NCc3ccc(N(C)[C@H]4C[C@@H](C(F)(F)F)C4)nc3)ccc21 (relative stereo) [Example 116, 1-(Trideuteromethyl)-N-((6-(methyl(cis-3-(trifluoromethyl)cyclobutyl)amino)pyridin-3-yl)methyl)-2-oxo-2,3-dihydro-1H-benzimidazole-5-carboxamide]
- IC50 (M-07e cells; [2]): 28 nM

Compound: CN(c1ccc(CNC(=O)c2cc(F)c3[nH]c(=O)[nH]c3c2)cn1)[C@H]1C[C@@H](C(F)(F)F)C1 [Example 142]
- IC50 ([1]; Table 99): 18 nM
- IC50 (M-07e cells; Homo sapiens, M-07e, 72 h): 278 nM

- IC50 ([1]; Table 99): 27 nM
Compound: CN(c1ccc(CNC(=O)c2cc(Cl)c3[nH]c(=O)[nH]c3c2)cn1)[C@H]1C[C@@H](C(F)(F)F)C1 [compound 141]
- IC50 (M-07e cells; SCF-dependent M-07e cell proliferation, 3 days, CellTiter Glo): 153 nM

Compound: C[C@@H]1CCCN1c1ccc(CNC(=O)c2ccc3c(c2)[nH]c(=O)n3C)cn1 [Example 99]
- IC50 ([1]; Table 98): 50 nM
- IC50 (M-07e cells; Homo sapiens, M-07e, 72 h): 540 nM

Compound: CC(N(C)c1ccc(CNC(=O)c2ccc3c(c2)[nH]c(=O)n3C)cn1)C(F)(F)F (centres unmarked) [Example 86]
- IC50 ([1]; Table 98): 15 nM
- IC50 (M-07e cells; Homo sapiens, M-07e, 72 h): 120 nM

Compound: CN(Cc1cccc(F)c1)c1ccc(CNC(=O)c2ccc3c(c2)[nH]c(=O)n3C)cn1 [Example 73]
- IC50 ([1]; Table 98): 27 nM
- IC50 (M-07e cells; Homo sapiens, M-07e, 72 h): 98 nM

Compound: CN(c1ccc(CNC(=O)c2ccc3c(c2)[nH]c(=O)n3C)cn1)C12CC(C1)C2 [Example 75]
- IC50 ([1]; Table 98): 61 nM
- IC50 (M-07e cells; Homo sapiens, M-07e, 72 h): 500 nM

- IC50 ([1]; Table 98): 96 nM
Compound: CC(C)N(C)c1ccc(CNC(=O)c2ccc3c(c2)[nH]c(=O)n3C)cn1 [Compound 11b, N-((6-(Isopropyl(methyl)amino)pyridin-3-yl)methyl)-1-methyl-2-oxo-2,3-dihydro-1H-be nzimidazole-5-carboxamide hydrochloride]
- IC50 (M-07e cells; [2]): 220 nM

Compound: CN(c1ccc(CNC(=O)c2ccc3c(c2)[nH]c(=O)n3C)cn1)c1cccc(F)c1F [Example 61]
- IC50 ([1]; Table 98): 56 nM
- IC50 (M-07e cells; Homo sapiens, M-07e, 72 h): 760 nM

Compound: CN(c1ccc(CNC(=O)c2ccc3c(c2)[nH]c(=O)n3C)cn1)C1CC(F)(F)C1 [Example 65]
- IC50 ([1]; Table 98): 35 nM
- IC50 (M-07e cells; Homo sapiens, M-07e, 72 h): 270 nM

- IC50 ([1]; Table 99): 21 nM
Compound: CN(c1ccc(CNC(=O)c2cc3[nH]c(=O)n(C)c3cc2F)cn1)C1CCC(F)(F)CC1 [Example 115, N-((6-((4,4-Difluorocyclohexyl)(methyl)amino)pyridin-3-yl)methyl)-6-fluoro-1-methyl-2-oxo-2,3-dihydro-1H-benzimidazole-5-carboxamide]
- IC50 (M-07e cells; [2]): 70 nM

Compound: CC(C1CC1)N(C)c1ccc(CNC(=O)c2ccc3c(c2)[nH]c(=O)n3C)cn1 (centres unmarked) [Example 83]
- IC50 ([1]; Table 98): 41 nM
- IC50 (M-07e cells; Homo sapiens, M-07e, 72 h): 300 nM

Compound: CN(c1ccc2c(c1)COC2)c1ccc(CNC(=O)c2ccc3c(c2)[nH]c(=O)n3C)cn1 [Example 119]
- IC50 ([1]; Table 99): 40 nM
- IC50 (M-07e cells; Homo sapiens, M-07e, 72 h): 423 nM

Compound: CN(c1ccc(CNC(=O)c2ccc3c(c2)[nH]c(=O)n3C)cn1)C12CC(C(F)(F)F)(C1)C2 [Example 80]
- IC50 ([1]; Table 98): 31 nM
- IC50 (M-07e cells; Homo sapiens, M-07e, 72 h): 240 nM

Compound: CC(NC(=O)c1ccc2c(c1)[nH]c(=O)n2C)c1ccc(Oc2ccc(F)cc2)nc1 (single isomer, unassigned) [Compound 6 Peak 1, N-(1-(6-(4-Fluorophenoxy)pyridin-3-yl)ethyl)-1-methyl-2-oxo-2,3-dihydro-1H-benzimid azole-5-carboxamide]
- IC50 (M-07e cells; [2]): 680 nM

Compound: Cn1c(=O)[nH]c2cc(C(=O)NCc3ccc(Oc4ccc(Cl)cc4F)nc3)ccc21 [Example 39]
- IC50 ([1]; Table 98): 35 nM
- IC50 (M-07e cells; Homo sapiens, M-07e, 72 h): 140 nM

Compound: CN(c1ccc(CNC(=O)c2ccc3[nH]c(=O)[nH]c3c2)cn1)C1CCC(F)(F)CC1 [Example 128]
- IC50 (M-07e cells; [2]): 2830 nM

- IC50 ([1]; Table 99): 35 nM
Compound: CN(c1ccc(CNC(=O)c2cc(F)c3[nH]c(=O)[nH]c3c2)cn1)C1CCC(F)(F)CC1 [Example 143]
- IC50 (M-07e cells; [2]): 1460 nM

Compound: CN(CC1CCC(F)(F)CC1)c1ncc(CNC(=O)c2ccc3c(c2)[nH]c(=O)n3C)s1 [Example 92]
- IC50 ([1]; Table 98): 59 nM
- IC50 (M-07e cells; Homo sapiens, M-07e, 72 h): 1900 nM

- IC50 ([1]; Table 99): 30 nM
Compound: CN(c1ccc(CNC(=O)c2cc3[nH]c(=O)[nH]c3c(F)c2F)cn1)C1CCC(F)(F)C1 (centres unmarked) [Example 146]
- IC50 (M-07e cells; [2]): 621 nM

- IC50 ([1]; Table 98): 67 nM
Compound: CC(c1ccc(F)cc1)c1ccc(CNC(=O)c2ccc3c(c2)[nH]c(=O)n3C)cn1 (centres unmarked) [Compound 15, N-((6-(1-(4-Fluorophenyl)ethyl)pyridin-3-yl)methyl)-1-methyl-2-oxo-2,3-dihydro-1H-be nzimidazole-5-carboxamide]
- IC50 (M-07e cells; [2]): 2200 nM

- IC50 ([1]; Table 99): 18 nM
Compound: CN(c1ccc(CNC(=O)c2cc3[nH]c(=O)[nH]c3cc2F)cn1)C1CCC(F)(F)C1 (centres unmarked) [Example 140]
- IC50 (M-07e cells; [2]): 99 nM

Compound: CN(CC1CCCOC1)c1ccc(CNC(=O)c2ccc3c(c2)[nH]c(=O)n3C)cn1 (centres unmarked) [Example 69]
- IC50 ([1]; Table 98): 96 nM
- IC50 (M-07e cells; Homo sapiens, M-07e, 72 h): 520 nM

Compound: CN(c1ccc(CNC(=O)c2ccc3c(c2)[nH]c(=O)n3C)cn1)[C@@H]1CCC(F)(F)C1 [Example 122]
- IC50 ([1]; Table 99): 32 nM
- IC50 (M-07e cells; Homo sapiens, M-07e, 72 h): 14 nM

Compound: CN(c1ccc(CNC(=O)c2ccc3c(c2)[nH]c(=O)n3C)cn1)C1CCC(F)(F)CC1 [Compound 10, N-((6-((4,4-Difluorocyclohexyl)(methyl)amino)pyridin-3-yl)methyl)-1-methyl-2-oxo-2,3-dihydro-1H-benzimidazole-5-carboxamide]
- IC50 (M-07e cells; [2]): 240 nM

- IC50 ([1]; Table 99): 23 nM
Compound: CN(c1ccc(CNC(=O)c2ccc3c([nH]c(=O)n3C)c2F)cn1)C1CCC(F)(F)C1 (centres unmarked) [Example 147]
- IC50 (M-07e cells; [2]): 440 nM

Compound: CN(c1ccc(CNC(=O)c2ccc3c(c2)[nH]c(=O)n3C)cn1)C1CC(C)(C)C1 [Example 77]
- IC50 ([1]; Table 98): 29 nM
- IC50 (M-07e cells; Homo sapiens, M-07e, 72 h): 110 nM

Compound: CN(c1ccc(CNC(=O)c2ccc3c(c2)[nH]c(=O)n3C)cn1)C1Cc2ccccc2C1 [Example 120]
- IC50 ([1]; Table 99): 45 nM
- IC50 (M-07e cells; Homo sapiens, M-07e, 72 h): 206 nM

Compound: Cn1c(=O)[nH]c2cc(C(=O)NCc3ccc(Oc4c(F)cccc4F)nc3)ccc21 [Example 40]
- IC50 ([1]; Table 98): 39 nM
